Results published in patent publication US12551418B2, “Cosmetic containing ultraviolet wavelength converting substance and medicinal agent” (Shiseido Company, Ltd., priority 2019, dated 2026).

Experiments:
Human dermal fibroblasts [1] = experiment: Restoration of cell activity decreased by UV irradiation (Example 3); assay type: cell-based; details: cells pre-irradiated 400 mJ/cm^2 without substance, then UV 0-200 mJ/cm^2 through 0.4% or 2% C-phycocyanin
Procedure: (§1) A cell sample was prepared as follows: • 1. Human dermal fibroblasts and human skin keratinocytes purchased from Kurabo Industries Ltd. were used. A cell suspension (1 mL) stored in liquid nitrogen was thawed in a water bath (37° C.) to an extent that small ice pellets remained, and then diluted with 9 mL of warm medium. • 2. The diluted suspension was mixed gently and then transferred to a T75 flask and incubated overnight at 37° C. • 3. The next day, the medium was replaced with 10 mL of fresh medium. • 4. The medium was replaced periodically (once every 2 days for fibroblasts and once every 2 to 3 days for keratinocytes) and cell proliferation was continued. Meanwhile, the cells were observed using a microscope, and it was confirmed that the cells grew in the correct form. • 5. After the cells reached about 80% confluence, the cells were passaged. The cells were passaged by washing the cells once with 10 mL of warm PBS, adding 5 mL of warm trypsin to a T75 flask, covering the bottom of the flask with a trypsin solution, followed by aspirating at room temperature for 1 minute. • 6. The flask was allowed to stand in an oven at 37° C. for (maximum) 2 minutes for fibroblasts and (maximum) 7 minutes for keratinocytes. The cells were observed using a microscope and confirmed to be small and oval. • 7. Thereafter, the side of the T75 flask was lightly tapped to release the cells. […]

Human dermal fibroblasts [2] = experiment: Influence of C-phycocyanin concentration and UV intensity on cell activity (Example 2); assay type: cell-based; details: UV 0-100 mJ/cm^2
Procedure: as §1

C-phycocyanin
cell activity (relative fluorescence intensity, AlamarBlue) (Human dermal fibroblasts [1]): cell activity was recovered
cell activity (relative fluorescence intensity, AlamarBlue) (Human dermal fibroblasts [2]; 0.4% C-phycocyanin solution plate): the decrease in cell activity was inhibited
cell activity (relative fluorescence intensity, AlamarBlue) (Human dermal fibroblasts [2]; 2% C-phycocyanin solution plate, compared to no UV irradiation): the cell activity was even enhanced
